Source: patent US12194014B2, “Platinum-based amphiphile prodrugs” (NANOMED HOLDINGS PTY LTD, priority 2018, dated 2025)
Values belong to the compound of their own block, whether it stands above or below them.

Columns and labels:
[1] = Mesophase behaviour by polarized optical microscopy (POM); assay type: physicochemical; settings: for POM observation on exposure to water: 25° C. and 37° C.; for Appearance of the Lyotropic phase at excess water (25° C.-50° C.): POM, equilibration 1 h
Procedure: Polarized Optical Microscopy (POM): Samples used for Polarized Optical Microscopy (POM) were prepared by placing a small amount of prodrug amphiphile on a microscope slide and covered with a cover slip. Water was placed on the edges of the cover slip and allowed to flow into the sample by capillary action. The microscope slide was placed in a Linkam PE94 hot stage (Linkam Scientific Instruments Ltd. Surrey, England) and heated at 3° C./min between room temperature and 50° C. […] Images were captured with a Nikon DS-Ri-1 camera. All images were taken at 100× magnification.
The formation of lyotropic mesophases is based on the interaction of the prodrug amphiphile with water. Polarized optical microscopy was used to study the liquid crystalline or crystalline structures of the prodrug amphiphiles. This method was used as a preliminary and qualitative investigation to observe the morphological changes of the amphiphile as well as to predict the structural changes of the mesophases which may form upon hydration with water. For each prodrug amphiphile, a small amount of the neat and dry sample was placed on a microscope slide and covered with a cover slip. Water was placed on the edges of the cover slip to allow to flow into the sample by capillary action. Images were captured at 25° C. before and after the addition of water and at 37° C. after exposure to water. 37° C. was selected due to its physiological relevance. […]

[2] = SAXS of neat and hydrated amphiphiles (phase, lattice parameter); assay type: physicochemical; settings: for lattice parameter, hydrated / phase, hydrated: excess water
Procedure: SAXS analyses of the bulk and lyotropic phases of the amphiphiles were performed on a Bruker NanoSTAR laboratory SAXS instrument (Brucker AXS, Kalsruhe, Germany).
(§1) The equilibrated lyotropic phases were placed into a demountable button sample cell. For the analysis of the dispersions, a multi-capillary holder was used. Button cells and capillary holder interchangeably fit into a block setup that was temperature-controlled with a Peltier heater-cooler system. 2D scattering images were radially averaged to conventional 1 D scattering plots and as a function of the q value (Å^−1) where q is the length of the scattering vector which was calculated using the formula q=(4π/λ) sin(θ/2), where λ is the wavelength and θ is the scattering angle.
(§2) Small angle X-ray scattering patterns of emulsions and liposomes display large broad peaks while liquid crystalline phases of highly ordered nanostructured particles such as cubosomes and hexosomes display distinct sharp peaks. The relative positions of the peaks (“spacing”) allows for the elucidation of the symmetry of the structure. The interplanar distance (d) between two reflecting planes may be calculated using the formula d=(2π)/q, where q is the absolute position of the peak. This, in turn allows for the calculation of the lattice parameter (a), the size of the unit cell, to be calculated.

[3] = SAXS / synchrotron SAXS of dispersed nanoparticles; assay type: physicochemical; settings: dispersion with PEG stabiliser
Procedure: as §1, §2
The CP prodrug amphiphiles were hydrated with warm PBS containing 10-30% PEG4K-oleoyl or other steric stabilisers such F108 or F127 and sonicated in a sonicator bath and using a probe sonicator resulting in the lipid emulsion. The nanoparticles were then processed through a polycarbonate membrane (3×400 nm, 3×200 nm and 3×100 nm) using an extruder (Avestin, LipoFast LF-50) in order to ensure homogenous sizing. The CP prodrug-phospholipid/cholesterol nanoparticles were prepared by mixing the CP amphiphiles, DMPC and cholesterol in ethanol, followed by vigorous mixing and gentle evaporation under reduced pressure resulting in a thin film. The thin film was then hydrated with warm PBS containing 10-30% of PEG4K-oleoy solution, sonicated in a sonicator bath and using a probe sonicator resulting in the lipid emulsion. The nanoparticles were then processed through a polycarbonate membrane (3×400, 3×200 nm, 9×100 nm) using an extruder (Avestin, LipoFast LF-50) in order to ensure homogenous sizing between 20-200 nm.

[4] = Reduction kinetics of Pt (IV) prodrug nanoparticles with ascorbic acid (LC-MS); assay type: in vitro ADME
Procedure: The reducing agent was applied at concentrations corresponding to those found in the living cells' environment, e.g. 1 mM ascorbic acid or 2 mM glutathione (GSH).
Dispersed nanoparticles of Pt (IV) prodrug amphiphiles were mixed with GSH, ascorbic acid or their combination. The ratios of the reducing agents to platinum prodrugs were 10:1 or 50:1 for ascorbic acid and 20:1 for GSH. The reduction kinetics was analysed by LC-MS via monitoring the peaks related to each prodrug amphiphile. The prodrugs were detected by negative ions optimised for each platinum amphiphile. The reduction kinetics was plotted as the percentage of the area under the peak of Pt (IV)-prodrug compared to the peak before the addition of the reducing agent against the time of incubation. At each time point 10 μl of a sample withdrawn from the reaction solution was injected directly into a Phenomenex C8 150 mm×2 mm 5 μm Luna column (Phenomenex, Australia). A 100% Methanol solution was used as the mobile phase with a flow rate of 0.5 ml/min for 8 minutes. The sample after the column separation was eluted to the ESI source. […] The samples were well maintained at a temperature of 37° C. during the entire measurement by incubation in the temperature-controlled auto-sampler. Data was acquired and processed with Xcalibur Quan chromatography software.

Compound: CC(C)CCCC(C)CCCC(C)CCCC(C)CC(=O)[O][Pt]([NH2])([NH2])([Cl])([Cl])[O]C(=O)CC(C)CCCC(C)CCCC(C)CCCC(C)C (mixture of isomers) [CP-bis (phytanoyl), cis,cis,trans-[PtCl2(NH3)2(phytanoyl)2]]
POM observation on exposure to water [1]: amenable to swelling to some extent | Appearance of the Lyotropic phase at excess water (25° C.-50° C.) [1]: No distinct mesophases | lattice parameter, neat non-hydrated ([2]; 25° C.): 37.3 ± 0.5 Å | phase, neat non-hydrated ([2]; 25° C.): LC1 | lattice parameter, neat non-hydrated ([2]; 37° C.): 37.3 ± 0.5 Å | phase, neat non-hydrated ([2]; 37° C.): LC1 | lattice parameter, hydrated ([2]; 25° C.): 37.3 ± 0.5 Å | phase, hydrated ([2]; 25° C.): LC1 | lattice parameter, hydrated ([2]; 37° C.): 39.8 ± 0.5 Å | phase, hydrated ([2]; 37° C.): LC1

Compound: CCCCC/C=C\C/C=C\CCCCCCCC(=O)[O][Pt]([Cl])([Cl])[O]C(=O)CCCCCCC/C=C\C/C=C\CCCCC.N.N [CP-bis (linoleoyl), cis,cis,trans-[PtCl2(NH3)2(linoleoyl)2]]
POM observation on exposure to water [1]: amenable to swelling to some extent | Appearance of the Lyotropic phase at excess water (25° C.-50° C.) [1]: No distinct mesophases | lattice parameter, hydrated ([2]; temperature not given): 33.5 ± 0.5 Å | phase, hydrated ([2]; temperature not given): LC1 | lattice parameter, neat non-hydrated ([2]; temperature not given): 33.5 ± 0.5 Å | phase, neat non-hydrated ([2]; temperature not given): LC1

Compound: CCCCCCCCCCCCCC(=O)OCCOCCOCCNC(=O)CCC(=O)[O][Pt]1([O]C(=O)CCC(=O)NCCOCCOCCOC(=O)CCCCCCCCCCCCC)[O]C(=O)C2(CCC2)C(=O)[O]1.N.N [Carboplatin-bis (suc-PEG3-myristoyl), cis, [Pt (Diamine) (1,1-cyclobutanedicarboxylato) (succinylamide-triethyleneglycol-myristoyl)2]]
Appearance of the Lyotropic phase at excess water (25° C.-50° C.) [1]: Lamellar

lattice parameter, hydrated ([2]; 25° C.): 46.54 ± 0.5 Å | lattice parameter, hydrated ([2]; 37° C.): 46.33 ± 0.5 Å | lattice parameter, neat non-hydrated ([2]; temperature not given): 46.20 ± 0.5 Å | lattice parameter of dispersed nanoparticles [3]: 47.62±0.5 Å | structure of dispersed nanoparticles [3]: multilamellar dispersed nanoparticle
Compound: CCCCCCCC/C=C\CCCCCCCC(=O)OCCOCCOCCNC(=O)CCC(=O)[O][Pt]([NH2])([NH2])([Cl])([Cl])[O]C(=O)CCC(=O)NCCOCCOCCOC(=O)CCCCCCC/C=C\CCCCCCCC [CP-bis(suc-amino-PEG3-oleoyl), cis,cis,trans-(PtCl2(NH3)2-(succinoyl-triethylene glycolyl-oleoyl)2)]

Compound: CCCCCCCCCCCCCC(=O)[O][Pt]1([NH2])([NH2])([O]C(=O)CCCCCCCCCCCCC)[O]C(=O)C2(CCC2)C(=O)[O]1 [Carboplatin-bis (myristoyl), cis, trans [(Diamine) (1,1-cyclobutanedicarboxylato) (bis myristoyl)]]
maximum reduction ([4]; ascorbic acid as reducing agent, up to 24 h): 80% | Appearance of the Lyotropic phase at excess water (25° C.-50° C.) [1]: No distinct mesophase

Compound: CCCCCCCCCCCCCC(=O)[O][Pt]([Cl])([Cl])[O]C(=O)CCCCCCCCCCCCC.N.N [CP-bis (myristoyl), cis,cis,trans-[PtCl2(NH3)2(myristoyl)2]]
POM observation on exposure to water [1]: amenable to swelling to some extent

Compound: CCCCCCCCCCCCCCCC(=O)[O][Pt]([Cl])([Cl])[O]C(=O)CCCCCCCCCCCCCCC.N.N [CP-bis (palmitoyl), cis,cis,trans-[PtCl2(NH3)2(palmitoyl)2]]
POM observation on exposure to water [1]: amenable to swelling to some extent

lattice parameter, hydrated ([2]; 25° C.): 43.93 ± 0.5 Å | lattice parameter, neat non-hydrated ([2]; temperature not given): 40.80 ± 0.5 Å | lattice parameter of dispersed nanoparticles [3]: 44.28±0.5 Å | structure of dispersed nanoparticles [3]: lamellar dispersed nanoparticle
Compound: CCCCCCCC/C=C\CCCCCCCC(=O)OCCOCCOCCOC(=O)[O][Pt]([NH2])([NH2])([Cl])([Cl])[O]C(=O)OCCOCCOCCOC(=O)CCCCCCC/C=C\CCCCCCCC [CP-bis (PEG3-oleoyl), cis,cis,trans-(PtCl2(-triethyleneglycolyl-oleoyl)2)]
POM observation on exposure to water [1]: formation of a lamellar liquid crystalline structures

Compound: CCCCCCCC/C=C\CCCCCCCC(=O)[O][Pt]([NH2])([NH2])([Cl])([Cl])[O]C(=O)CCCCCCC/C=C\CCCCCCCC [CP-bis (oleoyl), cis,cis,trans-[PtCl2(NH3)2(oleoyl)2]]
POM observation on exposure to water [1]: amenable to swelling to some extent | Appearance of the Lyotropic phase at excess water (25° C.-50° C.) [1]: No distinct mesophases | lattice parameter, hydrated ([2]; temperature not given): 34.2 ± 0.5 Å | phase, hydrated ([2]; temperature not given): LC1 | lattice parameter, neat non-hydrated ([2]; temperature not given): 34.2 ± 0.5 Å | phase, neat non-hydrated ([2]; temperature not given): LC1

Compound: cis, trans [Oxaliplatin-bis (myristoyl), cis, trans [Pt ((1R, 2R)-1,2 cyclohexanediamine-N,N′) (oxalate(2-)O,O′) (myristoyl)2]]
reduction rate compared with carboplatin prodrug ([4]; 1 mM ascorbic acid, 0.1 mM prodrug in DMPC/cholesterol nanoparticles): higher rate up to 3 h compared with carboplatin prodrug

Compound: CCCCCCCCCCCC(=O)[O][Pt]([Cl])([Cl])[O]C(=O)CCCCCCCCCCC.N.N [CP-bis (lauroyl), cis,cis,trans-[PtCl2(NH3)2(lauroyl)2]]
POM observation on exposure to water [1]: no observable difference after hydration with water at either 25 or 37 °C
